According to patent publication US20250324971A1, “HERBICIDAL DERIVATIVES” (SYNGENTA CROP PROTECTION AG, priority 2022, published 2025):

Assays:
Format in all cases: in vivo
[1] = system: Amaranthus retoflexus (AMARE); test: Pre-Emergence Test (herbicidal, glasshouse pots); details: evaluated after 13 days, five-point scale
[2] = system: Amaranthus palmeri (AMAPA); test: Pre-Emergence Test (herbicidal, glasshouse pots); details: evaluated after 13 days, five-point scale
[3] = system: Echinochloa crus-galli (ECHCG); test: Pre-Emergence Test (herbicidal, glasshouse pots); details: evaluated after 13 days, five-point scale
Setaria faberi (SETFA) [4] = test: Pre-Emergence Test (herbicidal, glasshouse pots); details: evaluated after 13 days, five-point scale
[5] = system: Ipomoea hederacea (IPOHE); test: Pre-Emergence Test (herbicidal, glasshouse pots); details: evaluated after 13 days, five-point scale
Zea mays (ZEAMX) [6] = test: Pre-Emergence Test (herbicidal, glasshouse pots); details: evaluated after 13 days, five-point scale
[7] = system: Amaranthus retoflexus (AMARE); test: Post-Emergence Test (herbicidal, glasshouse pots); details: evaluated after 13 days
How it was run: (§1)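 Pots sown and sprayed with compound in acetone/water 50:50 with 0.5% Tween 20 at rates in g/ha, grown in glasshouse (24/16 °C, 14 h light, 65% humidity). Damage scored 13 days later on a five-point scale (5 = 81-100%, 1 = 0-20%).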

Zea mays (ZEAMX) [8] = test: Post-Emergence Test (herbicidal, glasshouse pots); details: evaluated after 13 days
How it was run: as §1

[9] = system: Ipomoea hederacea (IPOHE); test: Post-Emergence Test (herbicidal, glasshouse pots); details: evaluated after 13 days
How it was run: as §1

[10] = system: Amaranthus palmeri (AMAPA); test: Post-Emergence Test (herbicidal, glasshouse pots); details: evaluated after 13 days
How it was run: as §1

[11] = system: Echinochloa crus-galli (ECHCG); test: Post-Emergence Test (herbicidal, glasshouse pots); details: evaluated after 13 days
How it was run: as §1

Setaria faberi (SETFA) [12] = test: Post-Emergence Test (herbicidal, glasshouse pots); details: evaluated after 13 days
How it was run: as §1

SMILES	percentage damage caused to the plant, AMARE ([1]; rate 250 g/ha)	percentage damage caused to the plant, AMAPA ([2]; rate 250 g/ha)	percentage damage caused to the plant, ECHCG ([3]; rate 250 g/ha)	percentage damage caused to the plant, SETFA (Setaria faberi (SETFA) [4]; rate 250 g/ha)	percentage damage caused to the plant, IPHOE ([5]; rate 250 g/ha)	percentage damage caused to the plant, ZEAMX (Zea mays (ZEAMX) [6]; rate 250 g/ha)	Post-Emergence Test AMARE percentage damage (five-point scale) ([7]; rate 250 g/ha)	Post-Emergence Test ZEAMX percentage damage (five-point scale) (Zea mays (ZEAMX) [8]; rate 250 g/ha)	Post-Emergence Test IPHOE percentage damage (five-point scale) ([9]; rate 250 g/ha)	Post-Emergence Test AMAPA percentage damage (five-point scale) ([10]; rate 250 g/ha)	Post-Emergence Test ECHCG percentage damage (five-point scale) ([11]; rate 250 g/ha)	Post-Emergence Test SETFA percentage damage (five-point scale) (Setaria faberi (SETFA) [12]; rate 250 g/ha)	other results
CCn1c(Oc2cc(F)ccc2Cl)cc(=O)c(C(=O)O)c1-c1ccc(Cl)c(Cl)c1 [Compound 35, 6-(2-chloro-5-fluoro-phenoxy)-2-(3,4-dichlorophenyl)-1-ethyl-4-oxo-pyridine-3-carboxylic acid]	–	–	–	–	–	–	–	–	–	–	–	–	percentage damage caused to the plant, AMARE ([1]; rate 1000 g/ha): 1 (1=0-20%); percentage damage caused to the plant, AMAPA ([2]; rate 1000 g/ha): 0; percentage damage caused to the plant, ECHCG ([3]; rate 1000 g/ha): 5 (5=81-100%); percentage damage caused to the plant, SETFA (Setaria faberi (SETFA) [4]; rate 1000 g/ha): 5 (5=81-100%); percentage damage caused to the plant, IPHOE ([5]; rate 1000 g/ha): 0; percentage damage caused to the plant, ZEAMX (Zea mays (ZEAMX) [6]; rate 1000 g/ha): 1 (1=0-20%); Post-Emergence Test AMARE percentage damage (five-point scale) ([7]; rate 1000 g/ha): 3 (3=41-60%); Post-Emergence Test ZEAMX percentage damage (five-point scale) (Zea mays (ZEAMX) [8]; rate 1000 g/ha): 2 (2=21-40%); Post-Emergence Test IPHOE percentage damage (five-point scale) ([9]; rate 1000 g/ha): 2 (2=21-40%); Post-Emergence Test AMAPA percentage damage (five-point scale) ([10]; rate 1000 g/ha): 3 (3=41-60%); Post-Emergence Test ECHCG percentage damage (five-point scale) ([11]; rate 1000 g/ha): 4 (4=61-80%); Post-Emergence Test SETFA percentage damage (five-point scale) (Setaria faberi (SETFA) [12]; rate 1000 g/ha): 4 (4=61-80%)
CCn1ccc(Oc2cc(=O)c(C(=O)O)c(-c3ccc(Cl)c(Cl)c3)n2CC)n1 [Compound 57, 2-(3,4-dichlorophenyl)-1-ethyl-6-(1-ethylpyrazol-3-yl)oxy-4-oxo-pyridine-3-carboxylic acid]	4 (4=61-80%)	3 (3=41-60%)	4 (4=61-80%)	5 (5=81-100%)	4 (4=61-80%)	5 (5=81-100%)	4 (4=61-80%)	4 (4=61-80%)	4 (4=61-80%)	4 (4=61-80%)	4 (4=61-80%)	4 (4=61-80%)	–
CCn1c(Oc2ccc(C)c(F)c2)cc(=O)c(C(=O)O)c1-c1ccc(Cl)c(Cl)c1 [Compound 41, 2-(3,4-dichlorophenyl)-1-ethyl-6-(3-fluoro-4-methyl-phenoxy)-4-oxo-pyridine-3-carboxylic acid]	1 (1=0-20%)	0	0	0	2 (2=21-40%)	0	2 (2=21-40%)	0	3 (3=41-60%)	2 (2=21-40%)	1 (1=0-20%)	1 (1=0-20%)	–
CCn1c(Oc2ccc(C)cc2)cc(=O)c(C(=O)O)c1-c1ccc(Cl)c(Cl)c1 [Compound 53, 2-(3,4-dichlorophenyl)-1-ethyl-6-(4-methylphenoxy)-4-oxo-pyridine-3-carboxylic acid]	2 (2=21-40%)	0	0	1 (1=0-20%)	1 (1=0-20%)	0	3 (3=41-60%)	1 (1=0-20%)	4 (4=61-80%)	4 (4=61-80%)	0	1 (1=0-20%)	–
CCn1c(Oc2ccc(F)nc2)cc(=O)c(C(=O)O)c1-c1ccc(Cl)c(Cl)c1 [Compound 52, 2-(3,4-dichlorophenyl)-1-ethyl-6-[(6-fluoro-3-pyridyl)oxy]-4-oxo-pyridine-3-carboxylic acid]	3 (3=41-60%)	2 (2=21-40%)	4 (4=61-80%)	5 (5=81-100%)	3 (3=41-60%)	5 (5=81-100%)	4 (4=61-80%)	4 (4=61-80%)	4 (4=61-80%)	1 (1=0-20%)	4 (4=61-80%)	4 (4=61-80%)	–
CCn1c(Oc2cc(C(F)F)n(C)n2)cc(=O)c(C(=O)O)c1-c1ccc(Cl)c(Cl)c1 [Compound 56, 2-(3,4-dichlorophenyl)-6-[5-(difluoromethyl)-1-methyl-pyrazol-3-yl]oxy-1-ethyl-4-oxo-pyridine-3-carboxylic acid]	–	–	–	–	–	–	–	–	–	–	–	–	percentage damage caused to the plant, AMARE ([1]; rate 62.5 g/ha): 0; percentage damage caused to the plant, AMAPA ([2]; rate 62.5 g/ha): 0; percentage damage caused to the plant, ECHCG ([3]; rate 62.5 g/ha): 0; percentage damage caused to the plant, SETFA (Setaria faberi (SETFA) [4]; rate 62.5 g/ha): 1 (1=0-20%); percentage damage caused to the plant, IPHOE ([5]; rate 62.5 g/ha): 0; percentage damage caused to the plant, ZEAMX (Zea mays (ZEAMX) [6]; rate 62.5 g/ha): 0; Post-Emergence Test AMARE percentage damage (five-point scale) ([7]; rate 62.5 g/ha): 2 (2=21-40%); Post-Emergence Test ZEAMX percentage damage (five-point scale) (Zea mays (ZEAMX) [8]; rate 62.5 g/ha): 0; Post-Emergence Test IPHOE percentage damage (five-point scale) ([9]; rate 62.5 g/ha): 3 (3=41-60%); Post-Emergence Test AMAPA percentage damage (five-point scale) ([10]; rate 62.5 g/ha): 3 (3=41-60%); Post-Emergence Test ECHCG percentage damage (five-point scale) ([11]; rate 62.5 g/ha): 2 (2=21-40%); Post-Emergence Test SETFA percentage damage (five-point scale) (Setaria faberi (SETFA) [12]; rate 62.5 g/ha): 3 (3=41-60%)
CCn1c(Oc2cnsn2)cc(=O)c(C(=O)O)c1-c1ccc(Cl)c(Cl)c1 [Compound 43, 2-(3,4-dichlorophenyl)-1-ethyl-4-oxo-6-(1,2,5-thiadiazol-3-yloxy)pyridine-3-carboxylic acid]	1 (1=0-20%)	0	1 (1=0-20%)	1 (1=0-20%)	3 (3=41-60%)	0	1 (1=0-20%)	0	4 (4=61-80%)	2 (2=21-40%)	2 (2=21-40%)	2 (2=21-40%)	–
